Results on seven molecules are retold here after patent US5869484A, “Phenylcarbamate derivatives suitable to the use as anticholinesterase substances” (priority 1994, dated 1999).

Where two headings read alike, the source gives them in different places. Where only a bound is given, the exact number is not on record here.

The conditions of series [1]: prior art; cited from earlier work.
The nature of series [2]: Acute toxicity (single administration) in rat. The following applies: in vivo.
The next series has as its system acetylcholinesterase. The following applies: prior art; cited from earlier work.
For a further series, the target named is T1, AChE E. eel (Electrophorus electricus, UniProt O42275).
T1 construct: purchased Sigma Chemical
T1 sequence (O42275 24-633): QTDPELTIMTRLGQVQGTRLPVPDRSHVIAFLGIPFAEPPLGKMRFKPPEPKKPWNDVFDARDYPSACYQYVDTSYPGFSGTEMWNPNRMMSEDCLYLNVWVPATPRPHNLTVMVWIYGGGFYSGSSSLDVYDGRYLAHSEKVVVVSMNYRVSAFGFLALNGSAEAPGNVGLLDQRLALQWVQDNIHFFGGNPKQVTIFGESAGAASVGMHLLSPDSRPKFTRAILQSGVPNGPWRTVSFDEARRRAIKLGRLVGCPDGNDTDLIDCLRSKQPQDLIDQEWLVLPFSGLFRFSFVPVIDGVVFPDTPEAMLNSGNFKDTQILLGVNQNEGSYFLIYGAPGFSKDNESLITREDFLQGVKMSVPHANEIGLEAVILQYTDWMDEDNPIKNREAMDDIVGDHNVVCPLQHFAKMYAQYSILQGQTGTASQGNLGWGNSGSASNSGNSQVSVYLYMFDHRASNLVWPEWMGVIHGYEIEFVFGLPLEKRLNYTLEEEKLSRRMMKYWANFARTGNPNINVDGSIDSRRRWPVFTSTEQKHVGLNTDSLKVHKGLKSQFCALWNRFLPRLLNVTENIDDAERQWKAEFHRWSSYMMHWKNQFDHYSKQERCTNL
The series can be described thus: biochemical. Further details: species or system Electric Eel. On the procedure: (§1) The incubation time between enzyme and product used for the determinations has been 10'.
(§2) The acetylcholinesterase from human erythrocytes (AChE hRBC), the acetylcholinesterase from Electric Eel (AChE E.eel) and the butyrylcholinesterase from human serum (BuChE hserum) coming from the Sigma Chemical have been used.

Another series addresses T2, BuChE hserum (Homo sapiens, UniProt P06276).
T2 construct: purchased Sigma Chemical; host or cells: human serum
The series can be described thus: Inhibition of butyrylcholinesterase from human serum (Ellman method). The series is classed as biochemical. The procedure:
as §1, §2
In general terms: DTNB colorimetry detects thiols as they appear.

For series [3] the following is noted: prior art, cited from earlier work; for transaminase levels: Eur. Neuropsychopharmacol. 1(3) (1991).
A short description of series [4]: Acute toxicity (single administration) in mouse. The following applies: in vivo.
Series [5] has as its system amnesic failure induced by scopolamine. Briefly: Passive Avoidance test, scopolamine-induced amnesic failure, rats. The series is classed as in vivo. The following applies: 0.5-1-2-4 mg/kg per os.
Another series has as its target T3, AChE hRBC (Homo sapiens, UniProt P22303).
T3 construct: purchased Sigma Chemical; host or cells: human erythrocytes
The series can be described thus: biochemical. On the procedure: as §1, §2

In series [6] the test system is mental pathologies / Alzheimer's disease. The following applies: prior art, clinical studies; cited from earlier work.
Where [7] appears, read: iv, read-out: Toxicity tests (LD50), rat iv.
[8] abbreviates: po, os, read-out: Toxicity tests (LD50), rat os.
Where [9] appears, read: iv, read-out: Toxicity tests (LD50), mouse iv.
Where [10] appears, read: po, os, read-out: Toxicity tests (LD50), mouse os.

T3 sequence (P22303 32-617 isoform P22303-2 limits assumed): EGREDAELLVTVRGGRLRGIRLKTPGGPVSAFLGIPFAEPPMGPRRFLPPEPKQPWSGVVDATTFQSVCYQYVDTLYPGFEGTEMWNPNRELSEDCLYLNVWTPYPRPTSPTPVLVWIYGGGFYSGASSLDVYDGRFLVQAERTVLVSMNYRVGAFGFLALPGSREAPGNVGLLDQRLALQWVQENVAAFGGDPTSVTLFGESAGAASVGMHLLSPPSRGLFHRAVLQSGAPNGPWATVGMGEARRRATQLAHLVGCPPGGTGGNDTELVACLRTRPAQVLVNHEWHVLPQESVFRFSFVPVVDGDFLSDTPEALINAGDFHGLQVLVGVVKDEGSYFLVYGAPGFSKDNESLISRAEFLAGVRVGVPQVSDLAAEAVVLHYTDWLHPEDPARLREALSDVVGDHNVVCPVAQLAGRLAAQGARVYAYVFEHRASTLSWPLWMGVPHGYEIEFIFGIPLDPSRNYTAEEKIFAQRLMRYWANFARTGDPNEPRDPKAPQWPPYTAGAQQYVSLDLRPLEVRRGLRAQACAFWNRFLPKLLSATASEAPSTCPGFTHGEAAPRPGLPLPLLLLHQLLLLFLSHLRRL
T2 sequence (P06276 29-602): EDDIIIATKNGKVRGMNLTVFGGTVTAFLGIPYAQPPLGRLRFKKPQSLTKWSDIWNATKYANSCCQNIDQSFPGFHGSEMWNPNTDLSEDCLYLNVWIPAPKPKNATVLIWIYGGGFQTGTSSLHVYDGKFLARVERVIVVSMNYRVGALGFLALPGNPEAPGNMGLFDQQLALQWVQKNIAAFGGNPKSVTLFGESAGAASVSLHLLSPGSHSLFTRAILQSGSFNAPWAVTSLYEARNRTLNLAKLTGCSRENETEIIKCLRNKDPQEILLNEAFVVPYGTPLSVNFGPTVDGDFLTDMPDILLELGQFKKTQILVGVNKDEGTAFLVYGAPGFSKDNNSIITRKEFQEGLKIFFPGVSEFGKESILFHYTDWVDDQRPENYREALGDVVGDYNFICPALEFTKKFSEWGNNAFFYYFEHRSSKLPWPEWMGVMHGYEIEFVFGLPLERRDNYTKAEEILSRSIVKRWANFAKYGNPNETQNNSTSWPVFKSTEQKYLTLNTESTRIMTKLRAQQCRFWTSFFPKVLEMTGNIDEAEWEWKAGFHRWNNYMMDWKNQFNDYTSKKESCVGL

Turning to `CCCCCCCNC(=O)Oc1ccc2c(c1)[C@]1(C)CCN(C)[C@@H]1N2C` [Eptastigmine, heptylcarbamic ester of the eseroline, reference compound], in series [1], the pharmacokinetic characteristics entry is given as “better pharmacokinetic characteristics”. Also, the median lethal dose (LD50) in [2] (setting [7]) was 5 mg/kg; in series [2] (setting [8]), 23 mg/kg; in [4] (setting [9]), 7 mg/kg; in series [4] (setting [10]) it was 25 mg/kg. Moreover, in the series with acetylcholinesterase, the inhibition of acetylcholinesterase entry was “less powerful”. Also, the half-inhibitory concentration (IC50) on AChE E. eel (incubation time 10', read-out: Inhibition of the cholinesterase (IC50 M), AChE E. eel) worked out at 0.05 µM; at BuChE hserum, 0.14 µM. Also, in series [3], the side-effects entry is reported as “reduced side-effects”.

Consider `CN(C)CC(C)(C)c1cccc(OC(=O)NCCCCCCCCN2CCOCC2)c1` [Ex. 1, 3-[(1-dimethylamino-2-methyl)prop-2-yl]-N-[8-(4-morpholinyl)octyl]phenylcarbamate], for which, in series [5], the “reduction of amnesic failure induced by scopolamine in the Passive Avoidance test” value is listed as “able to reduce the amnesic failure induced by scopolamine”. Besides, the results for the LD50 in series [2] (setting [8]), in [4] (setting [9]) and in series [4] (setting [10]) were 33 mg/kg, 15 mg/kg and 67 mg/kg, respectively. The half-inhibitory concentration (IC50) against AChE E. eel was 0.47 µM; at BuChE hserum, 0.016 µM; against AChE hRBC it was 0.16 µM. The “potency compared with eptastigmine, physostigmine or tacrine” value on AChE hRBC (comparison from Table 1) was “equal or even superior to that of eptastigmine or of physostigmine”.

For `C[C@@H]1CN(CCCCCCCCNC(=O)Oc2cccc(C(C)(C)CN(C)C)c2)C[C@H](C)O1` [Ex. 2, 3-[(1-dimethylamino-2-methyl)-prop-2-yl]-N-8-[[4-(cis2,6-dimethyl)morpholinyl]octyl]-phenylcarbamate], the half-maximal inhibitory concentration (IC50) was found to be 1.1 µM at AChE E. eel, 0.02 µM at BuChE hserum and 0.42 µM at AChE hRBC. Moreover, in series [4] (setting [10]), the LD50 is > 50 mg/kg.

On to `CN(C)CC(C)(C)c1cccc(OC(=O)N(C)c2ccccc2)c1` [Ex. 25, 3-[(1-dimethylamino-2-methyl)prop-2-yl]-N-phenyl-N-methyl-phenylcarbamate], for which the results for the LD50 in series [2] (setting [7]), in [2] (setting [8]) and in [4] (setting [9]) were 14 mg/kg, 56 mg/kg and 15 mg/kg, respectively. Further, the results for the IC50 against BuChE hserum and against AChE hRBC were > 1000 µM and 1.7 µM, respectively. In addition, the “activity on the BuChE” value on BuChE hserum (Table 1) is reported as “poor activity on the BuChE”. At AChE hRBC (AChE versus BuChE, Table 1), the “AChE inhibitory activity and selectivity” value is “potent and selective AChE inhibitory activity”.

Regarding `CNC(=O)Oc1ccc2c(c1)[C@]1(C)CCN(C)[C@@H]1N2C` [Physostigmine, reference compound], the pharmacokinetic characteristics entry in [1] is “unfavourable pharmacokinetic characteristics”. In [6], the efficacy in patients result is recorded as “beneficial results in the treatment of the patients affected by mental pathologies”. In addition, the inhibition of acetylcholinesterase result in the series with acetylcholinesterase was “powerful natural inhibitor of the acetylcholinesterase”. Moreover, the LD50 in [4] (setting [9]) worked out at 0.6 mg/kg; in series [4] (setting [10]) it was 3.4 mg/kg. Also, at AChE hRBC, the “potency compared with eptastigmine, physostigmine or tacrine” value was “superior to that of tacrine”.

With `Nc1c2c(nc3ccccc13)CCCC2` [Tacrine, 9-amino-1,2,3,4-tetrahydroacridine], the transaminase levels result in series [3] is listed as “induce high transaminase levels”.

Take `Nc1c2c(nc3ccccc13)CCCC2O` (stereo not drawn) [Velnacrine]: the transaminase levels result in series [3] is “induce high transaminase levels”.

In general, LD50 refers to the dose expected to kill half of the subjects tested. One may read the IC50 as the point on the concentration scale where inhibition reaches its midpoint.
